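48-hour exposure; five concentrations; linearly interpolated endpoints. The concentration for 50% growth inhibition is given as GI50. TGI: concentration producing complete growth inhibition.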

Data on one molecule can be found in PubChem BioAssay (NCI).

Some test systems named below: A549 NSCLC; HCC-2998 colon; HOP-92 NSCLC; 786-0 renal; NCI-H460 lung; KM12 colon; UACC-62 melanoma; OVCAR-8 ovarian; RPMI-8226 leukemia; UO-31 renal.
Assay in all cases: NCI anticancer screen, dose series, 48 h

In the case of `CCN(CC)c1ccc(/C=C/C2=[N+](C)c3ccccc3C2(C)C)cc1`, the GI50 in the test with A549 NSCLC is 518 nM; with HCC-2998 colon, 547 nM; in the test on HOP-92 NSCLC, 766 nM; with 786-0 renal, 653 nM; in the test with NCI-H460 lung, 312 nM; in the test with KM12 colon, 280 nM. For the same molecule, the GI50 in the test with UACC-62 melanoma is 435 nM; in the test on OVCAR-8 ovarian, 442 nM; in the test on RPMI-8226 leukemia it was 55.7 nM; with UO-31 renal it was 3260 nM. The TGI in the test with A549 NSCLC was more than 100000 nM; in the test on HCC-2998 colon it was 18600 nM; in the test with HOP-92 NSCLC, more than 35200 nM; with 786-0 renal, 13600 nM; in the test with NCI-H460 lung, 15800 nM; in the test with KM12 colon it was 1830 nM. Further, the TGI was 14900 nM with UACC-62 melanoma, more than 100000 nM in the test on OVCAR-8 ovarian, more than 61600 nM in the test on RPMI-8226 leukemia and 18100 nM in the test with UO-31 renal.
